From PubChem BioAssay (NCI)
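96-well plates; 48 h exposure; 5 concentrations. Endpoints by linear interpolation between flanking doses. Not reached: highest tested concentration assigned. TGI: concentration producing complete growth inhibition.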

Columns and labels:
Experiment in all cases: NCI-60 cell line screen, 48 h
[1] = test system: A549 NSCLC
[2] = test system: NCI-H23 lung
[3] = test system: SK-OV-3 ovarian
[4] = test system: DMS 114 small cell lung
[5] = test system: SK-MEL-2 melanoma
[6] = test system: SW-620 colon
[7] = test system: HCC-2998 colon
[8] = test system: SNB-75 CNS
[9] = test system: NCI-H226 lung
[10] = test system: SK-MEL-28 melanoma
[11] = test system: KM20L2 colon
[12] = test system: KM12 colon
[13] = test system: CAKI-1 renal
[14] = test system: TK-10 renal
[15] = test system: HOP-92 NSCLC
[16] = test system: HOP-62 NSCLC
[17] = test system: HL-60(TB) leukemia
[18] = test system: HCT-15 colon
[19] = test system: M19-MEL melanoma
[20] = test system: M14 melanoma
[21] = test system: K-562 leukemia
[22] = test system: OVCAR-5 ovarian
[23] = test system: LXFL 529 NSCLC
[24] = test system: OVCAR-3 ovarian
[25] = test system: SF-268 CNS
[26] = test system: UO-31 renal
[27] = test system: UACC-62 melanoma
[28] = test system: SNB-78 CNS
[29] = test system: U251 CNS
[30] = test system: OVCAR-8 ovarian
[31] = test system: NCI-H460 lung
[32] = test system: ACHN renal
[33] = test system: COLO 205 colon
[34] = test system: DLD-1 colon
[35] = test system: NCI-H522 lung
[36] = test system: IGROV1 ovarian
[37] = test system: HCT-116 colon
[38] = test system: RPMI-8226 leukemia
[39] = test system: SF-539 CNS
[40] = test system: HT29 colon
[41] = test system: LOX IMVI melanoma
[42] = test system: DMS 273 small cell lung
[43] = test system: XF 498 CNS
[44] = test system: SF-295 CNS
[45] = test system: EKVX NSCLC
[46] = test system: 786-0 renal
[47] = test system: SNB-19 CNS
[48] = test system: CCRF-CEM leukemia
[49] = test system: MALME-3M melanoma
[50] = test system: SN12C renal
[51] = test system: OVCAR-4 ovarian
[52] = test system: RXF 393 renal
[53] = test system: SK-MEL-5 melanoma
[54] = test system: UACC-257 melanoma
[55] = test system: SR leukemia
[56] = test system: A498 renal
[57] = test system: HOP-18 NSCLC

With c1ccc(CCCC2Sc3cccc4cccc(c34)S2)cc1 the TGI [1] was over 100 µM, the TGI [2] was over 100 µM and the TGI [3] was over 100 µM. The TGI [4] was over 100 µM, the TGI [5] was over 100 µM and the TGI [6] was over 100 µM. It also gave a TGI [7] of over 100 µM, a TGI [8] of over 100 µM and a TGI [9] of over 100 µM. It also gave a TGI [10] of over 100 µM, a TGI [11] of over 100 µM and a TGI [12] of over 100 µM. It also gave a TGI [13] of over 100 µM, a TGI [14] of over 100 µM and a TGI [15] of over 100 µM. It also gave a TGI [16] of over 100 µM, a TGI [17] of over 100 µM and a TGI [18] of over 100 µM. It also gave a TGI [19] of over 100 µM, a TGI [20] of over 100 µM and a TGI [21] of over 100 µM. It also gave a TGI [22] of over 100 µM, a TGI [23] of over 100 µM and a TGI [24] of over 100 µM. It also gave a TGI [25] of over 100 µM, a TGI [26] of over 100 µM and a TGI [27] of over 100 µM. The TGI [28] was over 100 µM, the TGI [29] was over 100 µM and the TGI [30] was over 100 µM. For the same compound, the TGI [31] was over 100 µM, the TGI [32] was over 100 µM and the TGI [33] was over 100 µM. The TGI [34] was over 100 µM, the TGI [35] was over 100 µM and the TGI [36] was over 100 µM. The TGI [37] was over 100 µM, the TGI [38] was over 100 µM and the TGI [39] was over 100 µM. For the same compound, the TGI [40] was over 100 µM, the TGI [41] was over 100 µM and the TGI [42] was over 100 µM. For the same compound, the TGI [43] was over 100 µM, the TGI [44] was over 100 µM and the TGI [45] was over 100 µM. The TGI [46] was over 100 µM, the TGI [47] was over 100 µM and the TGI [48] was over 100 µM. For the same compound, the TGI [49] was over 100 µM, the TGI [50] was over 100 µM and the TGI [51] was over 100 µM. It also gave a TGI [52] of over 100 µM and a TGI [53] of over 100 µM.
With CCCCCCCCCCCCC/C=C1\C[C@H](O)COC1=O the TGI [1] was 38.7 µM, the TGI [2] was 36.4 µM and the TGI [3] was 35.1 µM. The TGI [5] was 31.1 µM, the TGI [6] was 28.8 µM and the TGI [7] was 37.2 µM. For the same compound, the TGI [8] was 30.7 µM, the TGI [9] was 32.9 µM and the TGI [10] was 30.3 µM. For the same compound, the TGI [11] was 31.7 µM, the TGI [12] was 30.1 µM and the TGI [13] was 32.9 µM. The TGI [14] was 31.8 µM, the TGI [15] was 24.7 µM and the TGI [16] was 31.8 µM. For the same compound, the TGI [17] was 39.9 µM, the TGI [18] was 32.2 µM and the TGI [19] was 33.6 µM. It also gave a TGI [20] of 28.3 µM, a TGI [21] of 33.1 µM and a TGI [22] of 33.5 µM. It also gave a TGI [23] of 29.8 µM, a TGI [54] of 28.4 µM and a TGI [24] of 31.7 µM. For the same compound, the TGI [25] was 38 µM, the TGI [55] was 51.2 µM and the TGI [26] was 32.6 µM. It also gave a TGI [27] of 26.8 µM, a TGI [28] of 33.9 µM and a TGI [29] of 32 µM. It also gave a TGI [31] of 33.4 µM, a TGI [56] of 33.7 µM and a TGI [32] of 29.4 µM. It also gave a TGI [34] of 32 µM, a TGI [35] of 33.5 µM and a TGI [36] of 32.3 µM. For the same compound, the TGI [37] was 31.2 µM, the TGI [38] was 41 µM and the TGI [39] was 35.8 µM. For the same compound, the TGI [57] was 31.6 µM, the TGI [40] was 30.6 µM and the TGI [42] was 28 µM. It also gave a TGI [43] of 30.5 µM, a TGI [44] of 33 µM and a TGI [45] of 32 µM. For the same compound, the TGI [46] was 29.5 µM, the TGI [47] was 32.9 µM and the TGI [48] was 36.6 µM. The TGI [49] was 35.5 µM, the TGI [50] was 28.8 µM and the TGI [51] was 32.7 µM. The TGI [52] was 42.6 µM and the TGI [53] was 26.6 µM.
